Several values for one entry are separate records, joined by “and”; a condition that tells them apart may be missing. Identical values can stand only once.
Experiments:
CRAF-BRAF = biological target: T1, CRAF-BRAF (Homo sapiens, UniProt P04049+P15056); experiment: control BRET CRAF-BRAF (transient); assay type: cell-based; details: for Primary screen CRAF-BRAF (transient) % Inihibition / Primary screen CRAF-BRAF (transient) % Quench RLuc: 10-25 μM; for Confirmation CRAF-BRAF (transient) % Inihibition / Confirmation CRAF-BRAF (transient) % Quench RLuc: confirmation screen
T1 construct: expressed in transfected cells; host or cells: HEK293T, transient transfection with PEI
Protocol: (§1) We used our cell-based assay to screen a library of 112 983 compounds available in-house at IRIC’s High-Throughput Screening (HTS) platform (see Materials & Methods). Compounds were tested on cells in 384-well plates at concentrations between 10 μM and 25 μM, depending on their concentration in the original stocks solutions. BRET readings were taken 2 hours after treatment. Results obtained show a tight, close to normal distribution centered around zero inhibition relative to DMSO-treated controls (Fig. 1D). Compounds inducing at least 30% BRET inhibition were selected. From these, auto-fluorescent compounds and those that induced more than 90% reduction in RLucII luminescence were removed, leaving 800 primary hits, that we then re-tested using the same assay. In parallel, we tested these compounds in a control BRET assay for an unrelated pair of interacting proteins (BRAF-CRAF[46]) to exclude false-positive compounds that could reduce the BRET signal by interfering with light or by modifying the activity of GFP or Luc.
(§2) For the confirmation screen, the same procedure as for the primary screen was followed, except that HEK293T cells were also seeded at 6.25 millions of cells per simple CellStack on day 1 for transient transfections. These cells were transfected on day 3 with Luc-Map (5 μg) and Plk1-GFP (25 μg) pIRESHyg3 plasmids using polyethylenimine (PEI). To identify false-positives compounds, Luc-CRAF (4 μg) and GFP-BRAF (20 μg) plasmids were also transfected with PEI following the published procedure.

HeLa cells = experiment: mitotic index assay (phospho-Histone H3) in HeLa cells; assay type: cell-based; details: 10-25 μM, 7 h
Plk1-Map interaction [1] = biological target: T2, Plk1-Map interaction (Homo sapiens, UniProt P53350); experiment: LUMIER co-immunoprecipitation assay Plk1-Map; details: for Average-Beads (mean luminescence) / Co-IP Values relative to top in plate column = 1 / Luminescence on beads, duplicate wells: 10-25 μM, 2 h; for Relative Luminescence Unit: mean divided by maximum mean of the compounds; for Luminescence on beads, duplicate wells: raw data
GST-PBD367-603 of Plk1 = GST-PBD367-603 of Plk1 (Homo sapiens, UniProt P53350); experiment: fluorescence polarization assay PBD-phosphopeptide
Plk1-Map interaction [2] = biological target: T2, Plk1-Map interaction; experiment: BRET Plk1-Map, stable HEK293T Plk1-Luc/GFP-Map cell line; assay type: cell-based; design: cDNAs for the human full length Plk1; expressed in transfected cells; details: for Primary screen Plk1-Map (stable) % Inihibition / Primary screen Plk1-Map (stable) % Quench RLuc: 10-25 μM, 2 h; for Confirmation Plk1-Map (stable) % Inihibition / Confirmation Plk1-Map (stable) % Quench RLuc: confirmation screen
From the text: To develop a cell-based assay for the identification of Plk1 interaction inhibitors, we used Bioluminescence Resonance Energy Transfer (BRET)[42][43]. The assay monitors the interaction in HEK293T cells between Plk1 and Map205, a protein that we previously identified as an interactor of Drosophila Polo (Plk1 ortholog) on its PBD[44]. Although no ortholog of Drosophila Map205 has been found in vertebrates, this protein robustly interacts with vertebrate Plk1. […] Importantly, crystallography with zebrafish Plk1 has recently shown that Map205 nevertheless docks in the canonical phosphopeptide binding site of the PBD, with the natural phospho-mimetic Glu314 residue (Fig. 1A)[45]. In our assay, human Plk1 and a fragment of Drosophila Map205 (Map205_254-416 = Map) are respectively fused to Renilla luciferase II (Luc) and GFP10 (GFP), giving rise to energy transfer when the proteins are in close proximity (Fig. 1B). […] All combinations of Plk1 and Map tagged with Luc and GFP were tested (Supplementary Fig. S1). The Plk1-Luc/GFP-Map combination was selected because it yielded the highest BRET dynamic window. We then generated clonal stable cell lines co-expressing these two fusion proteins. These cell lines behaved very similarly to each other in BRET, and we selected one line that gave a high and reproducible BRET signal, with a Z′ score of 0.78, indicative of a robust assay for the purpose of a chemical screen (Supplementary Fig. S1).
as §1
For BRET on transiently transfected cells, 48 hours after the transfection, medium was removed, cells were washed twice with PBS, and then Tyrode solution (140 mM NaCl, 2.7 mM KCl, 12 mM NaHCO3, 5.6 mM D-glucose, 0.49 mM MgCl2, 0.37 mM NaH2PO4, 25 mM HEPES, pH 7.4, where 1 mM CaCl2 was freshly added) was added to the cells. Total fluorescence was first measured using a FlexStation II microplate reader (Molecular Devices), where the GFP10 was excited at 400 nm and read at 510 nm. Then, cells were treated for 5 minutes with 2.5 μM coelenterazine 400a (Gold Technology) before reading BRET2 using the Mithras LB940 microplate reader (Berthold Technologies). BRET2 signal corresponds to the light emitted by the GFP10 acceptor constructs (515 nm ± 20 nm) divided by the light emitted by the RlucII donor constructs (400 nm ± 70 nm). Net BRET2 was calculated by subtracting the background BRET ratio of the RLucII plasmid alone from the BRET ratio obtained by the two BRET partners. The Net BRET2 was plotted according to the GFP10/RLucII ratio, which was obtained by dividing the total fluorescence by the RLucII emission.
For the high throughput chemical screen, cells were amplified and frozen as multiple 1 ml aliquots containing 25 millions of stable HEK293T Plk1-Luc/GFP-Map cells to ensure that cells at the same passage number are used during the screen. […] Five days later, cells were counted and re-suspended in Tyrode solution. […]

Plk1-Map interaction [3] = biological target: T2, Plk1-Map interaction; experiment: BRET Plk1-Map, transient Luc-Map/Plk1-GFP in HEK293T; assay type: cell-based; design: cDNAs for the human full length Plk1; expressed in transfected cells; details: confirmation screen
Protocol: as §2

T1 sequence (P04049 whole entry): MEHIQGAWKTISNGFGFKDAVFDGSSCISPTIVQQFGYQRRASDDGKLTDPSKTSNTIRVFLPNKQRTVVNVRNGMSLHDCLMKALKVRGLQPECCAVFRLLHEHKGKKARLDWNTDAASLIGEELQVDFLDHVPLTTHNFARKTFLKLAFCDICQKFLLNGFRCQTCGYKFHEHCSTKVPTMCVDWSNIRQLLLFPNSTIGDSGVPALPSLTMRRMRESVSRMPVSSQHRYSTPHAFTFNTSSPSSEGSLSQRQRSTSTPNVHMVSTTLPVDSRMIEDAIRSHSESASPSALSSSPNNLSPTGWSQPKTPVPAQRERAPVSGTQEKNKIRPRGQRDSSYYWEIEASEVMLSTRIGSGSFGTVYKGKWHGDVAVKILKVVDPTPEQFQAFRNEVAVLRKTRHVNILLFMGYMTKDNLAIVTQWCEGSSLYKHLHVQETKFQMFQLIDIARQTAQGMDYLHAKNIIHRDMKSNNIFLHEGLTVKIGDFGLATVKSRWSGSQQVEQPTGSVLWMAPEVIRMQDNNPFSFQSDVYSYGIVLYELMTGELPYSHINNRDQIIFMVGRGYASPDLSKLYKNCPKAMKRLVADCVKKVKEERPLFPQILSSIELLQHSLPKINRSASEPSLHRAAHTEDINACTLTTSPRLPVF
T1 sequence (P15056 whole entry): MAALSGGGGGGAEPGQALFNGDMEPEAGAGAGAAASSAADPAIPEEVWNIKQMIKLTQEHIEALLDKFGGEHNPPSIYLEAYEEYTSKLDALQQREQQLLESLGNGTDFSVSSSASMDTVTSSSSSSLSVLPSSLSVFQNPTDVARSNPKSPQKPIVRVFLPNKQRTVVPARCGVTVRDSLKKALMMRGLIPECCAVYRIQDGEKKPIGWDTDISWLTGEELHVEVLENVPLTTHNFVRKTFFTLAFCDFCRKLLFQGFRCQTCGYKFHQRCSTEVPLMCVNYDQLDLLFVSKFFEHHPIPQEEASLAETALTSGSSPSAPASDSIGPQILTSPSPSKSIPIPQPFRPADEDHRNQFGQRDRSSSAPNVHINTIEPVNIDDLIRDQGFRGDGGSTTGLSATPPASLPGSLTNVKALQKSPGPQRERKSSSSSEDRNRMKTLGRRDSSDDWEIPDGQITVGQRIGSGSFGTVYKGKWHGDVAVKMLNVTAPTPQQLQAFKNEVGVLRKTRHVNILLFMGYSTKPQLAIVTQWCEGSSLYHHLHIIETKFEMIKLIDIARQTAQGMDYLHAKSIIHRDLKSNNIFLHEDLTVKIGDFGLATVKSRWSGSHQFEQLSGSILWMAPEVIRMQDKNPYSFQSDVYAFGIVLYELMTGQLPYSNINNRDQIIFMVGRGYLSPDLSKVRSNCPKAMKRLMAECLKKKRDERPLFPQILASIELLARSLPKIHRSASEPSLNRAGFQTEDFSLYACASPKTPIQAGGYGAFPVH
T2 sequence (P53350 whole entry): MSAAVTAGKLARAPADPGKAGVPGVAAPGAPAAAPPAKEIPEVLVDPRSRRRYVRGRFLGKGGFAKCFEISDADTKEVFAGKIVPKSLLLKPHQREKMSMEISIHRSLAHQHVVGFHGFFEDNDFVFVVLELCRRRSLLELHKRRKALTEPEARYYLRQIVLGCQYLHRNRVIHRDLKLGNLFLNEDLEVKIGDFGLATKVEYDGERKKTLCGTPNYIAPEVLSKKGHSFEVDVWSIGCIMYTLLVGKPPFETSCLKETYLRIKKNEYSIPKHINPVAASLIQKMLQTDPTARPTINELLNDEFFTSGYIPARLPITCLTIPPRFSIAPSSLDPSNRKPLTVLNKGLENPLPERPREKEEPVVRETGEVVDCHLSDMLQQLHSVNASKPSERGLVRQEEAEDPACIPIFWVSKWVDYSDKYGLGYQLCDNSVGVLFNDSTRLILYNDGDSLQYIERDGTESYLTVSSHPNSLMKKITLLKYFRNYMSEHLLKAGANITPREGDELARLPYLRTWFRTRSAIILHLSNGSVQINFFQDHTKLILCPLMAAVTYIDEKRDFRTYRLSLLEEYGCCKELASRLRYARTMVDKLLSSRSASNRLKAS
GST-PBD367-603 of Plk1, sequence (P53350 367-603): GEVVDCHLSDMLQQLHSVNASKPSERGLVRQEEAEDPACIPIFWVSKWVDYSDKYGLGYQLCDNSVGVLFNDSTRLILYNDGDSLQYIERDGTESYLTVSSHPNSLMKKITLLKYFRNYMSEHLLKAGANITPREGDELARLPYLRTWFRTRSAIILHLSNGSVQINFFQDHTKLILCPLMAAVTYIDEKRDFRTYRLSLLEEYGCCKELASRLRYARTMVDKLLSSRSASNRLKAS

In the case of `N#Cc1cccnc1S(=O)(=O)CCOC(=O)c1cccc(Cl)c1` [Cpd 15], the “Primary screen CRAF-BRAF (transient) % Inihibition” value (CRAF-BRAF) is reported as 31.50%, the “Primary screen CRAF-BRAF (transient) % Quench RLuc” value (CRAF-BRAF) is reported as 81.13% and the “Confirmation CRAF-BRAF (transient) % Inihibition” value (CRAF-BRAF) is reported as -4.59%. For the same molecule, the “Confirmation CRAF-BRAF (transient) % Quench RLuc” value (CRAF-BRAF) was 86.14%, the “Mitotic index (%)” value (HeLa cells) was 0.81% and the “Average-Beads (mean luminescence)” value (Plk1-Map interaction [1]) was 18,942. The “Co-IP Values relative to top in plate column = 1” value (Plk1-Map interaction [1]) was 0.017, the “Relative Luminescence Unit” value (Plk1-Map interaction [1]) was 0.017 and the “Luminescence on beads, duplicate wells” value (Plk1-Map interaction [1]) was 18,060 and 19,824. The IC50 (GST-PBD367-603 of Plk1; FP - IC50 (μM), Table S3) was 5.7 ± 2.8 µM, the IC50 (GST-PBD367-603 of Plk1; IC50 in FP, GST-PBD367-603 38 nM, 1 h pre-incubation, FITC-phosphopeptide 10 nM, Fig. 4C) was 6 µM and the “Primary screen Plk1-Map (stable) % Inihibition” value (Plk1-Map interaction [2]) was 67.91%. For the same molecule, the “Primary screen Plk1-Map (stable) % Quench RLuc” value (Plk1-Map interaction [2]) was 84.93%, the “Confirmation Plk1-Map (stable) % Inihibition” value (Plk1-Map interaction [2]) was 41.55% and the “Confirmation Plk1-Map (stable) % Quench RLuc” value (Plk1-Map interaction [2]) was 78.03%. For the same molecule, the “Confirmation Plk1-Map (transient) % Inihibition” value (Plk1-Map interaction [3]) was 53.01% and the “Confirmation Plk1-Map (transient) % Quench RLuc” value (Plk1-Map interaction [3]) was 72.97%.

`COc1ccc(-c2oc3ccccc3c(=O)c2OS(=O)(=O)c2ccccc2)cc1` [Cpd 46] was tested, and the “Primary screen CRAF-BRAF (transient) % Inihibition” value (CRAF-BRAF) was 16.40%, the “Primary screen CRAF-BRAF (transient) % Quench RLuc” value (CRAF-BRAF) was 63.54% and the “Confirmation CRAF-BRAF (transient) % Inihibition” value (CRAF-BRAF) was 19.45%. For the same molecule, the “Confirmation CRAF-BRAF (transient) % Quench RLuc” value (CRAF-BRAF) was 66.12%, the “Mitotic index (%)” value (HeLa cells) was 29.44% and the “Average-Beads (mean luminescence)” value (Plk1-Map interaction [1]) was 601,974. For the same molecule, the “Co-IP Values relative to top in plate column = 1” value (Plk1-Map interaction [1]) was 0.219, the “Relative Luminescence Unit” value (Plk1-Map interaction [1]) was 0.219 and the “Luminescence on beads, duplicate wells” value (Plk1-Map interaction [1]) was 584,340 and 619,608. For the same molecule, the “Primary screen Plk1-Map (stable) % Inihibition” value (Plk1-Map interaction [2]) was 53.18%, the “Primary screen Plk1-Map (stable) % Quench RLuc” value (Plk1-Map interaction [2]) was 82.37% and the “Confirmation Plk1-Map (stable) % Inihibition” value (Plk1-Map interaction [2]) was 30.35%. For the same molecule, the “Confirmation Plk1-Map (stable) % Quench RLuc” value (Plk1-Map interaction [2]) was 91.04%, the “Confirmation Plk1-Map (transient) % Inihibition” value (Plk1-Map interaction [3]) was -29.25% and the “Confirmation Plk1-Map (transient) % Quench RLuc” value (Plk1-Map interaction [3]) was 72.57%.

Source: paper PMC5118709, “Identification of Polo-like kinase 1 interaction inhibitors using a novel cell-based assay” (Scientific Reports, 2016)
